Assay: xn = mol fraction of the nth substance listed

C1CNCCN1.C1CNCCN1.C1CNCCN1.O=C(O)CC(O)(CC(=O)O)C(=O)O.O=C(O)CC(O)(CC(=O)O)C(=O)O + O
viscosity [mPa·s], 101.3 kPa
Settings	293.15 K	303.15 K	313.15 K
x1 = 0.000319	1.035	0.826	0.679
x1 = 0.000781	1.073	0.857	0.708
x1 = 0.000911	1.086	0.865	0.716
x1 = 0.00105	1.101	0.877	0.725
x1 = 0.00119	1.115	0.888	0.733
x1 = 0.00134	1.132	0.901	0.743
x1 = 0.00149	1.148	0.914	0.753
x1 = 0.00166	1.166	0.928	0.763
x1 = 0.00179	1.179	0.939	0.771
x1 = 0.001875	1.188	0.945	0.775
x1 = 0.002838	1.303	1.034	0.834

C=CC(=O)OCCCC + CCCCCCCCO
viscosity [mPa·s], 101.3 kPa
Settings	x1 = 0.0586	x1 = 0.1668	x1 = 0.2181	x1 = 0.3218	x1 = 0.4238	x1 = 0.6226	x1 = 0.7052	x1 = 0.8125	x1 = 0.9095	x1 = 0.9529
298.15 K	5.944	4.17	3.544	2.729	2.165	1.403	1.232	0.998	0.9	0.85
308.15 K	4.393	3.177	2.752	2.096	1.689	1.146	0.992	0.841	0.753	0.715

CC1CCCO1 (configuration not stated) + Brc1ccccc1
viscosity [mPa·s], 101 kPa
Settings	x1 = 0.0991	x1 = 0.1998	x1 = 0.301	x1 = 0.4046	x1 = 0.5029
298.15 K	1.007	0.9516	0.8942	0.8346	0.7773
313.15 K	0.835	0.7895	0.7425	0.6943	0.6477

O=C1OCCO1 + CS(C)=O
313.15 K, 101.33 kPa
Settings	viscosity [mPa·s]
x2 = 0.0721	1.862
x2 = 0.1744	1.786
x2 = 0.2849	1.709
x2 = 0.3698	1.656
x2 = 0.469	1.611
x2 = 0.5668	1.571
x2 = 0.6744	1.538
x2 = 0.7969	1.515
x2 = 0.8782	1.51
x2 = 0.9732	1.511

ClCC(Cl)Cl + CC(C)=O
298.15 K, 101 kPa
Settings	viscosity [mPa·s]
x2 = 0.212	0.91
x2 = 0.366	0.799
x2 = 0.497	0.677
x2 = 0.611	0.577
x2 = 0.704	0.509
x2 = 0.779	0.456
x2 = 0.837	0.411
x2 = 0.949	0.347

C[NH+]1CCCC1=O.O=S(=O)([O-])c1ccccc1 + O
viscosity [mPa·s]
Settings	293.15 K	298.15 K	303.15 K	308.15 K
100 kPa, x1 = 0.001798	1.074	0.9472	0.8439	0.7688
100 kPa, x1 = 0.003606	1.137	–	0.8882	0.8029
100 kPa, x1 = 0.005372	1.198	1.053	0.9316	–
100 kPa, x1 = 0.008042	1.285	–	0.998	0.8943
100 kPa, x1 = 0.01069	1.372	1.206	–	0.9518
100 kPa, x1 = 0.01421	1.491	–	–	–
100 kPa, x1 = 0.02115	1.749	–	–	–
100 kPa, x1 = 0.02631	1.971	1.746	1.541	1.369
100 kPa, x1 = 0.03141	2.217	1.963	1.737	1.527
101 kPa, x1 = 0.005347	–	1.055	–	–
101 kPa, x1 = 0.01545	–	–	1.185	–

CN(C)CCO + CCCCn1cc[n+](C)c1.F[P-](F)(F)(F)(F)F
viscosity [mPa·s], 101 kPa
Settings	x1 = 0.1221	x1 = 0.2143	x1 = 0.3182	x1 = 0.4405	x1 = 0.5166	x1 = 0.605	x1 = 0.709	x1 = 0.8063	x1 = 0.9128
293.15 K	–	–	87.91	60.57	47.58	34.73	–	–	7.95
298.15 K	–	88.45	66.23	45.68	36.09	27.08	–	–	6.67
303.15 K	–	67.51	50.77	35.67	28.45	–	–	–	5.64
308.15 K	67.28	52.1	39.24	27.9	–	–	–	7.99	4.78
313.15 K	52.9	41.46	31.33	–	–	–	9.84	6.74	4.13
318.15 K	42.39	33.36	25.47	–	–	–	8.35	5.74	3.59
323.15 K	35.09	27.71	–	–	–	9.86	7.12	4.99	3.18

CCn1cc[n+](C)c1.O=S(=O)([O-])C(F)(F)F + CC1COC(=O)O1
101 kPa
Settings	viscosity [mPa·s]
298.15 K, x1 = 0.6987	21.65
303.15 K, x1 = 0.0999	3.915
303.15 K, x1 = 0.1999	5.315
303.15 K, x1 = 0.6987	18.45
308.15 K, x1 = 0.1999	4.575
313.15 K, x1 = 0.3998	6.675
318.15 K, x1 = 0.8998	17.65
323.15 K, x1 = 0.0999	2.425
323.15 K, x1 = 0.3998	5.115

O=C1CCCN1C1CCCCC1 + CN1CCCC1=O
298.15 K, 100 kPa
Settings	viscosity [mPa·s]
x2 = 0.0108	10.21
x2 = 0.0206	9.998
x2 = 0.026	9.92
x2 = 0.0415	9.645
x2 = 0.046	9.574
x2 = 0.06	9.318
x2 = 0.0748	9.054
x2 = 0.0872	8.858
x2 = 0.094	8.735
x2 = 0.2076	7.103
x2 = 0.302	5.992
x2 = 0.4096	4.942
x2 = 0.5043	4.171
x2 = 0.61	3.449
x2 = 0.7	2.937
x2 = 0.8042	2.436
x2 = 0.9004	2.038
x2 = 0.9083	2.005
x2 = 0.9175	1.967
x2 = 0.9328	1.93
x2 = 0.9426	1.884
x2 = 0.9516	1.854
x2 = 0.9616	1.837
x2 = 0.9708	1.795
x2 = 0.9798	1.775

C=CC(=O)OC + CCCCCCCO
viscosity [mPa·s], 101.3 kPa
Settings	x1 = 0.0803	x1 = 0.219	x1 = 0.2841	x1 = 0.4009	x1 = 0.5184	x1 = 0.7017	x1 = 0.7824	x1 = 0.8604	x1 = 0.9347	x1 = 0.9686
298.15 K	4.278	2.912	2.304	1.632	1.218	0.783	0.653	0.563	0.493	0.467
308.15 K	3.262	2.282	1.857	1.348	1.032	0.677	0.568	0.49	0.428	0.411

CCCCCOC(C)=O + CO
303.15 K, 101.3 kPa
Settings	viscosity [mPa·s]
x1 = 0.0524	0.537
x1 = 0.1018	0.561
x1 = 0.1038	0.533
x1 = 0.1608	0.547
x1 = 0.1934	0.608
x1 = 0.3024	0.652
x1 = 0.4255	0.695
x1 = 0.5168	0.719
x1 = 0.5951	0.733
x1 = 0.6976	0.753
x1 = 0.791	0.775
x1 = 0.8949	0.794

CCCCCCCCCCCCCC(=O)OC + CCC1CCCCC1
viscosity [mPa·s], 100 kPa
Settings	x2 = 0.1016	x2 = 0.2015	x2 = 0.3	x2 = 0.4021	x2 = 0.4997	x2 = 0.6005	x2 = 0.7005	x2 = 0.7999	x2 = 0.9
293.15 K	4.029	3.57	3.134	2.705	2.312	1.944	1.626	1.342	1.089
298.15 K	3.577	3.181	2.785	2.419	2.079	1.774	1.489	1.237	1.009
303.15 K	3.173	2.839	2.508	2.191	1.893	1.616	1.367	1.14	0.935
308.15 K	2.804	2.513	2.231	1.948	1.701	1.469	1.248	1.045	0.862
313.15 K	2.532	2.282	2.035	1.797	1.578	1.362	1.163	0.978	0.812
318.15 K	2.328	2.104	1.887	1.666	1.469	1.277	1.097	0.93	0.772
323.15 K	2.1	1.912	1.724	1.541	1.361	1.184	1.018	0.866	0.723

CCCCCOC(C)=O + CC(=O)OCc1ccccc1
Settings	viscosity [mPa·s]
298.15 K, 101 kPa, x1 = 0.5	0.9738

C=CCC[n+]1ccn(CC)c1.[Br-] + O
viscosity [mPa·s], 101.33 kPa
Settings	x1 = 0.001149	x1 = 0.001784	x1 = 0.003604	x1 = 0.005391	x1 = 0.007164	x1 = 0.008843
293.15 K	1.038	1.055	1.095	1.132	1.168	1.206
298.15 K	0.922	0.936	0.971	1.003	1.034	1.067
303.15 K	0.825	0.837	0.867	0.895	0.924	0.95
308.15 K	0.743	0.754	0.781	0.806	0.831	0.854
313.15 K	0.674	0.684	0.708	0.73	0.753	0.772

O=C(O)CO + OC[C@@H](O)[C@H](O)[C@@H](O)CO
101.33 kPa, x2 = 0.25
Settings	viscosity [mPa·s]
303.15 K	937
313.15 K	446.3
323.15 K	208.9
